Five substances from patent publication US8691972B2, “Compounds and synthesis of tellurium-derivatized oligonucleotides for structural and functional studies” (priority 2009, dated 2014) can be followed below.

In data set [1] the test system is 3′-CGGACAAGAAG-5′ (complementary DNA strand). The data set is described as follows: Thermo-denaturation (UV-melting, 260 nm) of non-self-complementary DNA duplex. Type of data set: physicochemical. The conditions noted are these: for average Tm (melting temperature) of the duplex: duplex 5′-C(2′-TeX-dU)TCTTGTCCG-3′ & 3′-CGGACAAGAAG-5′, four measurements, 50 mM NaCl, 10 mM phosphate pH 6.5, 0.1 mM EDTA, 10 mM MgCl2, 0.5° C./min. How it is done: (§1) Solution of the duplex DNA (2 uM) was prepared by dissolving the DNAs in a buffer containing 50 mM NaCl, 10 mM NaH2PO4—Na2HPO4 (pH 6.5), 0.1 mM EDTA and 10 mM MgCl2. The solution was heated to 70° C. for 2 min and cooled slowly to room temperature, followed by storing at 4° C. for overnight before measurement. The Tm curves were acquired at 260 nm by heating the samples from 5 to 70° C. at a rate of 0.5° C./min using Cary 300 UV-Visible Spectrophotometer with a temperature controller. […] The samples (1 mM duplex) were heated from 6 to 75° C. with a rate of 0.5° C./min. The red, blue and green curves represent the native, 2′-TeMe and 2′-TePh duplex, respectively, and are labelled in FIG. 6. The average Tm (four measurements) for each duplex is: 44.0±0.1° C. (native), 40.7±0.1° C. (2′-TeMe) and 36.8±0.2° C. (2′-TePh). […] The samples (1 mM duplex) were heated from 6 to 70° C. with a rate of 0.5° C./min. The circle (red), diamond (blue) and hexagon (purple) curves represent the native, 2′-TeMe and 2′-TePh DNA duplexes, respectively, with the averaged Tm (four times): 39.4° C. (native), 28.6° C. (2′-TeMe) and 23.4° C. (2′-TePh).

Data set [2] concerns self-complementary duplex [5′-G(2′-TeX-dU)GTACAC-3′]2. The data set can be described thus: Thermo-denaturation (UV-melting, 260 nm) of self-complementary DNA duplex. Type of data set: physicochemical. The conditions noted are these: for averaged Tm of the duplex: self-complementary 8-mer 5′-G(2′-TeX-dU)GTACAC-3′, two modifications per duplex, four times, 0.5° C./min; for Tm decrease per modification: self-complementary duplex [5′-G(2′-TeX-dU)GTACAC-3′]2, compared with native; for Tm decrease compared with the native duplex: self-complementary duplex [5′-G(2′-TeX-dU)GTACAC-3′]2, double Te-modification. How it is done:
as §1

“And” between values parts separate entries of the source, which are not always exact repeats. Identical values can stand only once.

As to “5′-C(2′-TeX-dU)TCTTGTCCG-3′&3′-CGGACAAGAAG-5′ [2′-TeMe duplex]”, in data set [1], the “average Tm (melting temperature) of the duplex” value (“average Tm (melting temperature)” for short) is 40.7±0.1 °C and 40.7 °C. The “difference in melting temperature between native and modified DNA” value in data set [1] (non-self-complementary duplex 5′-C(2′-TeX-dU)TCTTGTCCG-3′ and 5′-CGGACAAGA-AG-3′) was determined as 3.3 °C.

On to “[5′-G(2′-TeX-dU)GTACAC-3′, X=Ph or Me]2 [2′-TePh DNA duplex]”, for which, in data set [2], the “averaged Tm of the duplex” value came out at 23.4 °C, the “Tm decrease per modification” value amounted to 7.5 °C and the “Tm decrease compared with the native duplex” value was found to be 15 °C.

For the substance “[5′-G(2′-TeX-dU)GTACAC-3′, X=Ph or Me]2 [2′-TeMe DNA duplex]”, in data set [2], the “averaged Tm of the duplex” value stood at 28.6 °C, the “Tm decrease per modification” value came out at 5.0 °C and the “Tm decrease compared with the native duplex” value was determined as 10 °C.

For “5′-C(2′-TeX-dU)TCTTGTCCG-3′&3′-CGGACAAGAAG-5′ [native duplex, reference compound]”, the “average Tm (melting temperature)” value in data set [1] is 44.0±0.1 °C and 44.0 °C.

As to “5′-C(2′-TeX-dU)TCTTGTCCG-3′&3′-CGGACAAGAAG-5′ [2′-TePh duplex]”, the “average Tm (melting temperature)” value in data set [1] is 36.8±0.2 °C and 36.8 °C.
